For assay [1], the system named is Streptococcus pyogenes. Nature of the assay: Antibiotic activity against Streptococcus pyogenes assessed as reduction in bacterial growth by Alamar Blue dye based CLSI broth microdilution method. The assay is classed as functional.
Assay [2] concerns Staphylococcus aureus. Nature of the assay: Antibiotic activity against Staphylococcus aureus ATCC 13709 assessed as reduction in bacterial growth by Alamar Blue dye based CLSI broth microdilution method. The assay is classed as functional.
Assay [3] has as its system Nakaseomyces glabratus. Nature of the assay: Antibiotic activity against Candida glabrata assessed as reduction in fungal growth by Alamar Blue dye based CLSI broth microdilution method. The assay is classed as functional. A general note: Alamar Blue is a resazurin reagent that responds to reducing activity.
In assay [4] the test system is Bacillus subtilis. Nature of the assay: Antibiotic activity against Bacillus subtilis ATCC 6633 assessed as reduction in bacterial growth by Alamar Blue dye based CLSI broth microdilution method. Format: functional.
For assay [5], the system named is Candida albicans. Nature of the assay: Antibiotic activity against Candida albicans assessed as reduction in fungal growth by Alamar Blue dye based CLSI broth microdilution method. Format: functional.
Assay [6] concerns Bacillus anthracis. Nature of the assay: Antibiotic activity against Bacillus anthracis assessed as reduction in bacterial growth by Alamar Blue dye based CLSI broth microdilution method. Format: functional.
Assay [7] deals with Staphylococcus aureus. Nature of the assay: Antibiotic activity against multidrug-resistant Staphylococcus aureus NE277 assessed as reduction in bacterial growth by Alamar Blue dye based CLSI broth microdilution method. The assay is classed as functional, organism-based.
Assay [8] has as its system Staphylococcus aureus. Nature of the assay: Antibiotic activity against multidrug-resistant Staphylococcus aureus CAIRD116 assessed as reduction in bacterial growth by Alamar Blue dye based CLSI broth microdilution method. Format: functional, organism-based.
In assay [9] the test system is Staphylococcus aureus. Nature of the assay: Antibiotic activity against multidrug-resistant Staphylococcus aureus CAIRD142 assessed as reduction in bacterial growth by Alamar Blue dye based CLSI broth microdilution method. The assay is classed as functional, organism-based.
In assay [10] the test system is Staphylococcus aureus. Nature of the assay: Antibiotic activity against multidrug-resistant Staphylococcus aureus CAIRD148 assessed as reduction in bacterial growth by Alamar Blue dye based CLSI broth microdilution method. The assay is classed as functional, organism-based.
The subject of assay [11] is Klebsiella pneumoniae. Nature of the assay: Antibiotic activity against Klebsiella pneumoniae ATCC 10031 assessed as reduction in bacterial growth by Alamar Blue dye based CLSI broth microdilution method. Format: functional, organism-based.
The subject of assay [12] is Escherichia coli. Nature of the assay: Antibiotic activity against Escherichia coli ATCC 25922 assessed as reduction in bacterial growth by Alamar Blue dye based CLSI broth microdilution method. Format: functional, organism-based.
The subject of assay [13] is Pseudomonas aeruginosa. Nature of the assay: Antibiotic activity against Pseudomonas aeruginosa assessed as reduction in bacterial growth by Alamar Blue dye based CLSI broth microdilution method. The assay is classed as functional, organism-based.

“And” between values parts separate entries of the source, which are not always exact repeats. Identical values can stand only once. The source made the active and inactive calls. No cut-off for these calls is given here. Where only a bound is given, the exact number is not on record here.

What is called MIC is the lowest concentration that inhibits growth of the organism.

In the case of `C[C@@H]1CCC(O)CCCCCC[C@H](OC(=O)CCC(=O)O)C(=O)/C=C/C(=O)O1` (some centres undefined), the MIC in [1] was 250 µM and 100 µg/mL; in assay [2], 32 µM and 13 µg/mL; in assay [3], > 500 µM and > 200 µg/mL; in assay [4] it was 125 µM and 50 µg/mL; in assay [5], > 500 µM and > 200 µg/mL; in assay [6], 64 µM and 26 µg/mL. Besides, the result in assay [7], in assay [8], in assay [9] and in assay [10] was Active.
Consider `C[C@@H]1CCCCCCCCCC[C@H](O)/C=C/C(=O)O1`, for which the MIC in assay [1] is 250 µM and 67 µg/mL; in assay [2], 125 µM and 33 µg/mL; in [3] it was > 250 µM and > 67 µg/mL; in [4] it was 125 µM and 33 µg/mL; in [5] it was > 250 µM and > 67 µg/mL; in assay [6], 125 µM and > 67 µg/mL.
In the case of `C[C@@H]1CCCCCCCCC[C@H](OC(=O)CCC(=O)O)[C@H](O)CCC(=O)O1`, the MIC was > 500 µM and > 45 µg/mL in assay [1]; > 500 µM and > 45 µg/mL in assay [2]; > 500 µM and > 45 µg/mL in assay [3]; > 500 µM and > 45 µg/mL in assay [4]; > 500 µM and > 45 µg/mL in assay [5]; > 500 µM and > 45 µg/mL in assay [6]. For the same compound, the result in assay [11], in assay [12] and in [13] was inactive.
Turning to `C[C@@H](O)CCCCCCCCC[C@H](O)[C@H]1CCC(=O)O1`, the MIC in assay [1] was 16 µM and 5 µg/mL; in assay [2] it was 500 µM and 143 µg/mL; in assay [3], > 500 µM and > 143 µg/mL; in assay [4] it was > 500 µM and > 143 µg/mL; in assay [5], > 500 µM and > 143 µg/mL; in assay [6], > 500 µM and > 143 µg/mL. Further, the outcome in assay [11], in assay [12] and in assay [13] was inactive.
`C[C@@H]1CCCCCCCCC[C@H](OC(=O)CCC(=O)O)[C@H](O)/C=C/C(=O)O1`: the MIC was > 250 µM and > 90 µg/mL in assay [1]; 125 µM and 45 µg/mL in assay [2]; > 250 µM and > 90 µg/mL in assay [3]; > 250 µM and > 90 µg/mL in [4]; > 250 µM and > 90 µg/mL in assay [5]; > 250 µM and > 90 µg/mL in assay [6].
Consider `C[C@@H]1CCCCCCCCC[C@H](OC(=O)CCC(=O)O)C(=O)/C=C/C(=O)O1`, for which the MIC was 125 µM and 48 µg/mL in assay [1]; 8 µM and 3 µg/mL in [2]; 125 µM and 48 µg/mL in [3]; 32 µM and 12 µg/mL in assay [4]; 250 µM and 96 µg/mL in assay [5]; 16 µM and 6 µg/mL in assay [6]. The result in assay [7], in assay [8], in assay [9] and in assay [10] was Active.
As for `C[C@@H]1CCCCCCCCC[C@H](O)[C@H](O)/C=C/C(=O)O1`, the MIC in assay [1] is > 250 µM and > 71 µg/mL; in [2] it was 250 µM and 71 µg/mL; in [3] it was > 250 µM and > 71 µg/mL; in assay [4], > 250 µM and > 71 µg/mL; in assay [5], > 250 µM and > 71 µg/mL; in [6], 250 µM and > 71 µg/mL.
For `C[C@@H]1CCCCCCCCC[C@H](O)[C@H](OC(=O)CCC(=O)O)/C=C/C(=O)O1`, the MIC in assay [1] was > 250 µM and > 90 µg/mL; in assay [2], 125 µM and 45 µg/mL; in assay [3], > 250 µM and > 90 µg/mL; in assay [4], 125 µM and 45 µg/mL; in assay [5], > 250 µM and > 90 µg/mL; in assay [6], 250 µM and > 90 µg/mL.
`COC(=O)[C@]12C(=O)[C@]3(C)O[C@](C)(C=C4[C@]5(C=O)CC[C@H](OC(C)=O)C(C)(C)[C@H]5CC[C@@]41C)[C@@]2(C)C3=O`: the MIC in [2] was 125 µM and 62 µg/mL; in [3], > 500 µM and > 248 µg/mL; in assay [4], 250 µM and 124 µg/mL; in assay [5] it was > 500 µM and > 248 µg/mL; in [6] it was 125 µM and 62 µg/mL. For the same compound, the outcome in [11], in assay [12] and in assay [13] was inactive.
On to `C[C@@H](O)CCCCCCCCC[C@H](OC(=O)CCC(=O)O)[C@H]1CCC(=O)O1`, for which the MIC in assay [1] was > 500 µM and 193 µg/mL; in assay [2] it was 500 µM and 193 µg/mL; in assay [3], 500 µM and 193 µg/mL; in assay [4] it was 500 µM and 193 µg/mL; in assay [5] it was 125 µM and 48 µg/mL; in assay [6], > 500 µM and 193 µg/mL. Further, the outcome in [11], in assay [12] and in assay [13] was inactive.
